In the supplement of paper PMC5770543:
± gives the standard deviation.

What was measured:
[1] = system: Plasmodium falciparum 3D7; experiment: R50 (50% reduction of ring formation, egress/invasion); higher = less potent
Protocol: (§1)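 P. falciparum asexual blood stages. EC50: sorbitol-synchronized 3D7 rings were treated with 2-fold dilutions from 10 µM for 60 h, with parasitemia read by SYBR Green I fluorescence; EC50 listed as 10 means not determined and is left out. Stage transition screen: ~40-42 hpi schizonts were treated at 1, 3 and 10 µM; new rings were counted by Hoechst flow cytometry and % inhibition is relative to DMSO controls (mean of 3 experiments). R50: concentration giving 50% reduction of new ring formation versus DMSO in 3D7, K1 and KH004-003, from flow cytometry after 12-20 h treatment of schizonts.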

[2] = system: Plasmodium falciparum KH004-003 (artemisinin resistant); experiment: as above
Protocol: as §1

[3] = system: Plasmodium falciparum K1 (chloroquine resistant); experiment: as above
Protocol: as §1

[4] = system: Toxoplasma gondii RH tachyzoites; experiment: median egress time after A23187 ionophore; higher = stronger egress inhibition; conditions: 10 µM; pretreatment time: 24 h
Protocol: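 T. gondii RH tachyzoites expressing firefly luciferase were grown in HFF monolayers for 48 h with compound. % growth inhibition at 10 µM and EC50 (2-fold dilutions from 10 µM) were read by luminescence relative to 1% DMSO; EC50 listed as 10 (not determined, <80% inhibition) is left out. Plaque assays: 50 tachyzoites per well with 10 µM compound for 8-10 days, giving plaque count and area by crystal violet/ImageJ. Egress: median time to egress after 1 µM A23187 ionophore following 24 h of 10 µM compound (DMSO ~1.8 min; >10 = no egress within 10 min).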

[5] = system: Toxoplasma gondii RH tachyzoites; experiment: % growth inhibition vs DMSO (48 h luciferase); higher = more inhibition; conditions: 10 µM
[6] = system: Plasmodium falciparum 3D7; experiment: % inhibition of schizont-to-ring transition vs DMSO; higher = more inhibition
Outline: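 Tightly synchronised P. falciparum schizonts (about 40–42 hours post-invasion, 1% parasitemia, 2.5% hematocrit, AlbuMAX-supplemented RPMI) were exposed to compound at 1, 3 or 10 µM, with vehicle and positive controls. Cells were glutaraldehyde-fixed, Triton-permeabilised, stained with Hoechst 33342 and counted by flow cytometry (at least 100,000 events). Schizont-to-ring transition inhibition is new ring formation relative to vehicle controls, averaged over three experiments.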

[7] = system: Plasmodium falciparum 3D7; experiment: EC50 growth inhibition (60 h, SYBR Green); conditions: stage: ring-stage start
[8] = system: Toxoplasma gondii RH tachyzoites; experiment: plaque count per well; higher = less inhibition; extreme values may be limits of the assay; conditions: 10 µM; 8-10 days
Outline: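 Confluent HFF monolayers in six-well plates were preseeded with compound at 10 µM, and fifty T. gondii RH tachyzoites were added to each well. After 8 to 10 days without disturbance, the plates were methanol-fixed, stained with crystal violet, imaged, and plaques per well were counted in ImageJ. The plaque count per well is taken as a measure of delayed-death inhibition of parasite growth.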

[9] = biological target: Toxoplasma gondii RH tachyzoites; experiment: EC50 growth inhibition (48 h luciferase)
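Wherever % growth inhibition vs DMSO (48 h luciferase) is given: tested in triplicate wells of 96-well plates on confluent HFF monolayers, with 1% DMSO wells as negative control in four replicates.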

| Structure (SMILES) | R50 [1] [µM] | R50 [2] [µM] | R50 [3] [µM] | median egress time [4] [min] | % growth inhibition [5] [%] | % inhibition of schizont-to-ring transition ([6]; 1 µM) [%] | % inhibition of schizont-to-ring transition ([6]; 3 µM) [%] | % inhibition of schizont-to-ring transition ([6]; 10 µM) [%] | EC50 growth inhibition [7] [nM] | plaque count per well [8] | EC50 growth inhibition [9] [nM] |
| --- | --- | --- | --- | --- | --- | --- | --- | --- | --- | --- | --- |
| CCOC(=O)c1c(NC(=O)c2ccccc2)sc2c(O)c(CN(CC)CC)ccc12 | 0.186 | 0.138 | 0.103 | 2.13 | 65.8 ± 12 | 57.2 | 69.3 | 71.9 | 8.57 |  |  |
| O=C(NC1CCN(Cc2ccccc2)CC1)c1cc(C(=O)NC2CCN(Cc3ccccc3)CC2)cc(C(=O)NC2CCN(Cc3ccccc3)CC2)c1 | 3.38 | 1.42 | 0.179 | 2.33 | 18.9 ± 16 | 25.8 | 30.4 | 53.7 | 1670 | 35 |  |
| Cc1cc(Nc2ccc(C)c(Cl)c2)n2nc(C(F)(F)F)nc2n1 | 0.274 | 0.1 | 0.212 | 2.46 | 23.8 ± 9.5 | 51.6 | 56.6 | 65.1 | 12.5 |  |  |
| CNCCCNc1ccnc2cc(Cl)ccc12 | 0.345 | 3.81 | 4.11 | 2.4 | 21.4 ± 19 | 61.4 | 66.5 | 71.6 | 25.8 |  |  |
| CN1CCN(c2ccc(Nc3c4ccccc4nc4ccccc34)cc2)CC1 | 1.39 | 0.883 | 1.94 |  | 100 ± 0.36 | 68.6 | 75.5 | 77.1 | 59.9 |  | 2320 |
| CC(C)(C)c1ccc(O)c(CNC2CCCCC2)c1 | 0.305 | 0.215 | 0.119 | 2.8 | 7.99 ± 2.4 | 70.4 | 76.8 | 76.9 | 93.3 | 0 |  |
| CCOc1cc2c(cc1OCC)C(c1cc(OC)c(O)cc1Cl)NCC2 (stereo not given) | 2.71 | 1.32 | 0.342 | 2.27 | 37.4 ± 13 | 11.2 | 60 | 76.1 | 711 |  |  |
| CCOc1c(Cl)cc(CNC(C)C(O)c2ccccc2)cc1OC (stereo not given) | 3.32 | 2.58 | 1.56 | 3.47 | 18.8 ± 18 | 2.61 | 19.5 | 72.7 | 926 | 0 |  |
| CCN(Cc1ccccc1)C1CCN(Cc2cc(Br)ccc2O)CC1 | 0.998 | 0.532 | 0.491 | > 10 | < 0 | 59.3 | 74.2 | 76.9 | 310 | 24 |  |
